Laboratory results as given in patent publication US20260256668A1, “METHODS FOR STRENGTHENING AND REPAIRING HAIR” (Living Proof, Inc., priority 2023, published 2026).

Key:
[1] = Hair denaturation temperature (Td) by differential scanning calorimeter (DSC); conditions: 3× bleached hair; for hair denaturation temperature (Td) compared to bleached, virgin and phytic acid (PA) treated hair: 2 wt % active aqueous solution, pH 4.0-4.5, 10 min, blow dry (FIGS. 4, 6, 7)
Description: European virgin brown hair was bleached three times to obtain the 3× bleached hair model. Each bleaching was done with a mixture of bleaching powder (BW2) and 40V clear developer at 1:2 ratio (5 g mixture per 1.5 g of hair) for 1 hour at room temperature, followed by 30 s water rinse, 1× wash with Sodium Lauryl Ether Sulfate (SLES), and dried in a humidity chamber for 15 min at 50° C., 20% RH. […] For each DSC measurement, a 3-5 mg of hair sample in 50 μL Deionized water is sealed and equilibrated (overnight) in a stainless-steel pressure resistant high-volume pan, then heated from 25° C. to 180° C. at a 5° C./min heating rate.

[2] = Dia-Stron single fiber tensile (mechanical) testing; conditions: 3× bleached hair, compared to bleached hair before treatment (FIG. 8)
Description: All single fiber tensile measurements are performed using a Dia-Stron MTT686/MTT690 (under 100% extension at gauge force of […], break threshold of 5 g, rate of 20 mm/min, maximum force of 2000 gmf and premature failure threshold of 10% strain). Before the tensile testing, all hair fibers (30 mm in length, ≥20 fibers per treatment) are fixed by 2 brass crimps at the ends and mounted on a Dia-Stron tray. Initial dimension measurements are collected using a Dia-Stron FDAS770 (double ended samples, sample size of 30 mm in length, no of slices of 5 under one rotation per slice), followed by equilibration in Deionized water for at least 2 h prior to testing.

[3] = Water contact angle (surface hydrophobicity), DSA100M Drop Shape Analyzer
Description: For this test, […], which was prepared by treating European virgin brown hair with a mixture of BW2 bleaching powder and clear 30 V developer (1:1.5 ratio, 5 g mixture per 1.5 g of hair) for 20 min under a Belvedere hooded dryer with high heat setting, followed by 30 s water rinse, 30 s 10% SLES wash, and air dry at room temperature. […] In the DSA method, a single hair fiber is mounted in a sample holder and focused by the digital camera of DSA100M. Then a droplet of filtered DI water (20-60 nL) is applied to the top of the hair fiber by a digital droplet applier, A video is then recorded until the disappearance of the water droplet. The water contact angle is obtained using the first image of the water droplet recorded. The data is collected for 3 fibers per treatment and 3 points per fiber, a total of 9 data points per treatment.

Molecule	hair denaturation temperature (Td) compared to bleached, virgin and phytic acid (PA) treated hair [1]	Young's modulus [2]	also measured
NCP(=O)(O)O [AMPA, Aminomethyl phosphonic acid]	full recovery of Td to the virgin level	biggest increases in Young's modulus	
O=P(O)(O)O[C@H]1[C@H](OP(=O)(O)O)[C@@H](OP(=O)(O)O)[C@H](OP(=O)(O)O)[C@@H](OP(=O)(O)O)[C@H]1OP(=O)(O)O [PA, phytic acid, reference compound]			hair denaturation temperature (Td) compared to the base formula ([1]; washed, 0.25 g formula (PA 0.75 wt %, with or without DPhate 1 wt %) 10 min, blow dried (FIG. 17)): significantly increased Td; hair surface hydrophobicity (water contact angle) compared to base formula ([3]; formula with PA 0.75 wt %, with or without DPhate 1 wt % (FIG. 18)): significantly improved hair surface hydrophobicity
CCCCCCCCCCCCOP(=O)(O)O [DPhate, Lauryl phosphate]			water contact angle relative to virgin hair ([3]; ethanol solution 2 wt %, 10 min, blow dry (FIG. 12)): recovered significantly and close to the virgin level
Phosphatidylcholine [PC]			water contact angle relative to virgin hair ([3]; aqueous solution 1 wt % active (FIG. 14)): recovered close to the virgin level
C=CP(=O)(O)O [VPA, Vinyl phosphonic acid]	full recovery of Td to the virgin level	biggest increases in Young's modulus	
